Measurements: patent publication US11071727B2, “Therapeutic targeting of proteolytic cleavage of the mixed lineage leukemia gene product (MLL1) by taspase1 using kinase inhibitors” (Northwestern University, priority 2018, dated 2021)

What was measured:
[1] = tested on: MLL1 cleavage by taspase1; test: in vitro taspase1 cleavage assay on lysates of pretreated taspase1 KO cells; assay type: biochemical, human; conditions: 293T taspase1 KO cells pretreated 30 hours with CX-4945 (3 μM) or TTP22 (10 μM), compared with DMSO control
Procedure: FIG. 5. CKII inhibitors selectively increase full-length MLL1 protein levels by decreasing the phosphorylation of MLL1 near the cleavage sites. (A) Conservation of the sequences flanking MLL1-CS2, MLL2 and TFIIA cleavage sites and phosphorylated serine and threonine residues after the cleavage sites (highlighted in red). (B) and (C) 293T cells were transfected with vector control (VT), WT, AA or DD reporter constructs of MLL1-p75 or TFIIA. Western blot was performed with anti-Flag antibody for MLL1 (p75: FL, p47: cleaved) or TFIIA (p54: FL, p47: cleaved). (D) and (E) 293T cells were transfected with WT or AA reporter constructs of MLL1-p75 or TFIIA in the presence or absence of HA-taspase1. Western blot was performed with anti-Flag antibody for MLL1 or TFIIA, or anti-HA antibody for taspase1. (F) 293T cells were infected with shRNAs against CKIIα or CKIIα′. Western blot was performed with anti-MLL1C antibody for MLL1 full-length protein levels, and CKIIα or CKIIα′ for knockdown efficiency. (G) 293T cells were treated with DMSO or 10 μM CX-4945 for 30 hours. Cells were harvested and lysed for Western blot against MLL1, MLL2 or TFIIA using β-tubulin as the loading control. […]
in vitro taspase1 cleavage assay. […] Cleavage efficiency was detected by western blot against MLL1C and TFIIA using Hsp90 as the loading control.

[2] = tested on: MOLM13 cells; test: MOLM13 human leukemia xenograft mouse model; assay type: in vivo
Procedure: FIG. 7. CKII inhibition delays the leukemia progression and improves survival of MLL-AF9 mice and MOLM13 human leukemia mice. (A) Timeline of the MLL-AF9 leukemia mouse model and CKII inhibitor treatment. Drug treatments were started at day 10 after transplantation. (B) Kaplan-Meier survival curves of secondary transplanted C57BL/6 mice after vehicle and CX-4945 treatment at day 10. Vehicle or CX-4945 (50 mg/kg or 75 mg/kg) were administered twice daily by oral gavage for a total of twenty treatments. Leukemia was confirmed at the endpoint for each transplant mouse. The number (n) indicates the number of mice in each group. The p values were calculated using the log rank test. (C) Timeline of the MOLM13 human leukemia xenograft mice. Drug treatments were started at day 5 after transplantation. (D) Kaplan-Meier survival curves of NSGS mice after vehicle and CX-4945 treatment. Vehicle or CX-4945 (50 mg/kg) were administered twice daily by oral gavage for a total of twenty treatments. Leukemia was confirmed at the endpoint for each transplant mouse by flow cytometry, H&E staining and histology analysis. […] The p value was calculated using the log rank test. […]
MLL Murine Xenograft Transplantation and Treatment. […] Mice were monitored for illness including signs of lethargy, ruffled coat, and/or hind limb paralysis at which time mice were sacrificed for analysis. […]

O=C(O)c1ccc2c(c1)nc(Nc1cccc(Cl)c1)c1ccncc12 [CX-4945, 5-(3-chlorophenylamino)benzo[c][2,6]naphthyridine-8-carboxylic acid]
cleavage efficiency by recombinant taspase1 protein [1]: cleavage efficiency was significantly diminished
weight of the mice ([2]; MOLM13 human leukemia xenograft mouse model, compared with vehicle control group): did not affect the weight of the mice
leukemia free survival ([2]; NSGS mice, 50 mg/kg twice daily by oral gavage for ten days, from day 5): significantly lengthened
